The source of these data is patent publication US12691106B2, “Treating refractive disorders by targeting peroxisome proliferator-activated receptor (PPAR) signaling pathway” (Centre for Eye and Vision Research Limited, priority 2023, dated 2026).

One data set has as its system normal growing eye. In words: Effect of rosiglitazone on normal chick eyes. Format: in vivo. The conditions noted are these: 5 mM, 10 μL intravitreal injection once a day for 3 days, two time points (FIG. 2).
For data set [1] the following is noted: in vivo.
Data set [2] relates to lens-induced myopia (LIM) chick eyes. In words: Lens-induced myopia (LIM) in chicks, axial length by ultrasonic A-scan. Format: in vivo. On the procedure: (§1) Chicks age day 7 are divided into 2 groups, lens-induced myopia (LIM) and age-matched control (CTL), randomly. Chick eyes are measured with ultrasonic A-scan and refractive index by retinoscope by a single-masked operator. A computer-controlled randomization is applied to assign either left or right eye for LIM treatment and contralateral eye served as untouch control. Baseline physiological data is acquired on day 7. Purified rosiglitazone (>99%) is purchased from manufacturer and dissolved in 100% Dimethyl sulfoxide (DMSO). A working rosiglitazone solution is prepared in the concentration of 5 mM in 2% DMSO, PBS solution prior use. The rosiglitazone (5 mM, 10 μL) is delivered by intravitreal injection in the LIM eye once a day for 3 consecutive days. A-10 D lens is applied soon after drug delivery. Chick eyes are measured again on day 10 to access the effect of rosiglitazone.
as §1, with “Further, the effect of rosiglitazone in lower dosages is also investigated. Briefly, chicks age” for “Chicks age”, “into 3” for “into 2”, “myopia with higher dosage (LIM with 1 mM, n=7), lens-induced myopia with lower dosage (LIM with 0.2 mM, n=7)” for “myopia (LIM)”, “control (CTL, n=2),” for “control (CTL),”, “as untouched” for “as untouch”, “rosiglitazone (1 mM, 10 μL or 0.2” for “rosiglitazone (5”
Referring to FIG. 1, the rosiglitazone treatment has shown a consistent effect on slowing myopia progression by an average of 65% using different batches of chicks when compared to independent age-matched chicks subjected to LIM treatment. The effect of myopia inhibition is reduced with dose with an exponential regression of y=1.14e^−0.57x, R^2=1) to 37% of inhibition in 1 mM drug and 21% of inhibition in 0.2 mM drug treatment group.

Each structure is given as a SMILES string.

For `CN(CCOc1ccc(CC2SC(=O)NC2=O)cc1)c1ccccn1` (stereo not drawn) [rosiglitazone], the “effect on normal growing eye or inducing hyperopia in naked eye” value in the data set with normal growing eye is recorded as “no statistically significant effect”. The “toxicity in animal models” value in data set [1] is on record as “no sign of toxicity”. In addition, the “inhibition of myopia (axial length)” value in data set [2] (0.2 mM, 10 μL intravitreal injection once a day for 3 days, -10 D lens, measured day 10) was determined as 21%; in data set [2] (1 mM, 10 μL intravitreal injection once a day for 3 days, -10 D lens, measured day 10) it was 37%. Besides, the “slowing myopia progression (axial length), inhibition vs age-matched LIM chicks” value in data set [2] (5 mM, 10 μL intravitreal injection once a day for 3 days, -10 D lens, measured day 10, average over different batches of chicks) came to 65%. Also, the “suppression of axial length growth” value in data set [2] (dose-dependent, summary statement, dose not given) was found to be 65%.
